Where a name gives a salt, the structure may show the parent alone.
Key:
[1] = test system: Carragenine induced edema; test: Activity on carragenine induced edema (Table 9); assay type: in vivo
From the text: |Activity on carragenine induced edema.

[2] = in vivo; settings: po, rat, p.o., read-out: DL50 (the source's name)
[3] = test system: ulcerogenic effect; test: Ulcerogenic effect; assay type: in vivo; settings: dose 50 mg
[4] = test system: Carragenine induced edema; test: Carragenine induced edema, first test (Table 2); assay type: in vivo
From the text: |ANTI-INFLAMMATORY ACTIVITY. |Carragenine induced edema, first test.

[5] = test system: erytrocytes sedimetation rate (ESR); test: Erytrocytes sedimetation rate (ESR) (Table 8); assay type: in vivo; set-up: unit not given here; settings: arthritis checks 41, 56
[6] = test system: Freund's adjuvant induced arthritis; test: Freund's adjuvant induced arthritis, edema inhibition
[7] = test system: SH Groups in serum; test: SH groups in serum (Table 8); assay type: in vivo; settings: arthritis checks 70, 77
[8] = test system: Carragenine induced edema; test: Anti-inflammatory activity on carragenine induced edema (Table 11); assay type: in vivo; settings: for % inhibition: 50 mg/Kg p.o.
[9] = test system: Joint's diameter; test: Joint's diameter in arthritis (Table 7); assay type: in vivo; set-up: unit not given here
[10] = test system: capillary permeability (Histamine); test: Effect on the capillary permeability, histamine; assay type: in vivo; settings: 200 mg/Kg p.o., checks 21.33, 200 mg/kg
From the text: (§1) |Effect on the capillary permeability

[11] = test system: Kaolin edema; test: Edema induced by different substances: kaolin (Table 3); assay type: in vivo
From the text: (§2) |Edema induced by different substances.

[12] = test system: Carragenine edema; test: Edema induced by different substances: carragenine (Table 3); assay type: in vivo
From the text: as §2

[13] = test system: capillary permeability (Serotonin); settings: 200 mg/Kg p.o., checks 18.16
[14] = test system: Dextrose edema; test: Edema induced by different substances: dextrose (Table 3); assay type: in vivo
From the text: as §2

[15] = test system: capillary permeability (Dextran); test: Effect on the capillary permeability, dextran; assay type: in vivo; settings: 200 mg/Kg p.o., checks 14.83, 200 mg/kg
From the text: as §1

[16] = test system: Yeast edema; test: Edema induced by different substances: yeast (Table 3); assay type: in vivo
From the text: |Edema induced by different substances. | % edema inhibition

[17] = test system: Cotton-pellets induced granuloma; test: Cotton-pellets induced granuloma; assay type: in vivo; settings: 200 mg/Kg p.o.
From the text: | Cotton-pellets induced granuloma.

[18] = test system: Serotonin edema; test: Edema induced by different substances: serotonin (Table 3); assay type: in vivo
From the text: as §2

Compound: CC=CCC(C(=O)O)c1ccc(-c2ccc(Cl)cc2)cc1 (racemic) [SCR 158, 2-[4-biphenylyl-(4' chloro)]4-hexenoic acid]
- Inhibition % ([1]; 56 mg/Kg p.o.): 0%
- Inhibition % ([1]; 85 mg/Kg p.o.): 16%
- Inhibition % ([1]; 127 mg/Kg p.o.): 14%
- LD50 [2]: 940 mg/kg

Compound: CC=CCC(C(=O)O)c1ccc(-c2ccccc2)cc1 (single isomer, unassigned) [SCR 153, Triethanolamine salt of dextrogyre form]
- ulcerogenic effect [3]: it is doubtful that above dose (50 mg) of SCR 153 could have any ulcerogenic effect
- % inhibition ([4]; 12.5 mg/Kg p.o.): 24%
- % inhibition ([4]; 25 mg/Kg p.o.): 29%
- % inhibition ([4]; 50 mg/Kg p.o.): 45%
- % inhibition ([4]; 100 mg/Kg p.o.): 53%
- E.S.R. ([5]; 20 mg/Kg p.o.): 59
- E.S.R. ([5]; 40 mg/Kg p.o.): 32
- Edema inhibition % ([6]; 20 mg/Kg p.o., 2 days): 40%
- Edema inhibition % ([6]; 20 mg/Kg p.o., 4 days): 24%
- Edema inhibition % ([6]; 20 mg/Kg p.o., 8 days): 52%
- Edema inhibition % ([6]; 20 mg/Kg p.o., 12 days): 49%
- Edema inhibition % ([6]; 20 mg/Kg p.o., 16 days): 30%
- Edema inhibition % ([6]; 20 mg/Kg p.o., 20 days): 22%
- Edema inhibition % ([6]; 20 mg/Kg p.o., 24 days): 10%
- Edema inhibition % ([6]; 40 mg/Kg p.o., 2 days): 60%
- Edema inhibition % ([6]; 40 mg/Kg p.o., 4 days): 40%
- Edema inhibition % ([6]; 40 mg/Kg p.o., 8 days): 56%
- Edema inhibition % ([6]; 40 mg/Kg p.o., 12 days): 61%
- Edema inhibition % ([6]; 40 mg/Kg p.o., 16 days): 59%
- Edema inhibition % ([6]; 40 mg/Kg p.o., 20 days): 56%
- Edema inhibition % ([6]; 40 mg/Kg p.o., 24 days): 55%
- SH groups diminution in % ([7]; 20 mg/Kg p.o.): 79%
- SH groups diminution in % ([7]; 40 mg/Kg p.o.): 48%
- anti-inflammatory effect compared with 5 mg of indomethacin ([8]; 50 mg SCR 153 vs 5 mg indomethacin): near equal to the one obtained with 5 mg of indomethacin
- % inhibition [8]: 37%
- Joint's diameter ([9]; 20 mg/Kg p.o., 1 week, arthritis checks 0.48, 0.38): 0.46
- Joint's diameter ([9]; 20 mg/Kg p.o., 2 weeks, arthritis checks 0.71, 0.75): 0.61
- Joint's diameter ([9]; 20 mg/Kg p.o., 3 weeks, arthritis checks 0.81, 0.79): 0.62
- Joint's diameter ([9]; 20 mg/Kg p.o., 4 weeks, arthritis checks 0.85, 0.89): 0.73
- Joint's diameter ([9]; 40 mg/Kg p.o., 1 week, arthritis checks 0.48, 0.38): 0.24
- Joint's diameter ([9]; 40 mg/Kg p.o., 2 weeks, arthritis checks 0.71, 0.75): 0.39
- Joint's diameter ([9]; 40 mg/Kg p.o., 3 weeks, arthritis checks 0.81, 0.79): 0.44
- Joint's diameter ([9]; 40 mg/Kg p.o., 4 weeks, arthritis checks 0.85, 0.89): 0.52

Compound: CC=CCC(C(=O)O)c1ccc(-c2ccccc2)cc1 (single isomer, unassigned; (+)) [SCR 152, (+) 2-(4-biphenylyl)-4-hexenoic acid]
- ulcerogenic effect [3]: exhibits none ulcerogenic effect
- Effect on the capillary permeability, .0. m.micron [10]: 21.57 m.micron
- % edema inhibition ([11]; 50 mg/Kg p.o., 50 mg/kg): 19%
- % edema inhibition ([11]; 100 mg/Kg p.o., 100 mg/kg): 40%
- % edema inhibition ([11]; 200 mg/Kg p.o., 200 mg/kg): 40%
- % edema inhibition ([12]; 50 mg/Kg p.o., 50 mg/kg): 54%
- % edema inhibition ([12]; 100 mg/Kg p.o., 100 mg/kg): 52%
- % edema inhibition ([12]; 200 mg/Kg p.o., 200 mg/kg): 66%
- Effect on the capillary permeability, .0. m.micron [13]: 17.71 m.micron
- % edema inhibition ([14]; 50 mg/Kg p.o., 50 mg/kg): 12%
- % edema inhibition ([14]; 100 mg/Kg p.o., 100 mg/kg): 39%
- % edema inhibition ([14]; 200 mg/Kg p.o., 200 mg/kg): 45%
- Effect on the capillary permeability, .0. m.micron [15]: 8.00 m.micron
- % edema inhibition ([16]; 50 mg/Kg p.o.): 13%
- % edema inhibition ([16]; 100 mg/Kg p.o., 100 mg/kg): 25%
- % edema inhibition ([16]; 200 mg/Kg p.o., 200 mg/kg): 17%
- % inhibition [8]: 31%
- anti-inflammatory effect (in words) ([8]; dose of 50 mg): rather good anti-inflammatory effect
- % inhibition [17]: 12%
- % edema inhibition ([18]; 50 mg/Kg p.o., 50 mg/kg): 3%
- % edema inhibition ([18]; 100 mg/Kg p.o., 100 mg/kg): 3%
- % edema inhibition ([18]; 200 mg/Kg p.o., 200 mg/kg): 17%

Compound: CC=CCC(C(=O)O)c1ccc(-c2ccccc2)cc1 (single isomer, unassigned; (-)) [SCR 156, (-) 2-(4-biphenylyl)-4-hexenoic acid]
- Effect on the capillary permeability, .0. m.micron [10]: 21.00 m.micron
- % edema inhibition ([11]; 50 mg/Kg p.o., 50 mg/kg): 32%
- % edema inhibition ([11]; 100 mg/Kg p.o., 100 mg/kg): 26%
- % edema inhibition ([11]; 200 mg/Kg p.o., 200 mg/kg): 28%
- % edema inhibition ([12]; 50 mg/Kg p.o., 50 mg/kg): 9%
- % edema inhibition ([12]; 100 mg/Kg p.o., 100 mg/kg): 31%
- % edema inhibition ([12]; 200 mg/Kg p.o., 200 mg/kg): 23%
- Effect on the capillary permeability, .0. m.micron [13]: 16.43 m.micron
- % edema inhibition ([14]; 50 mg/Kg p.o., 50 mg/kg): 14%
- % edema inhibition ([14]; 100 mg/Kg p.o., 100 mg/kg): 5%
- % edema inhibition ([14]; 200 mg/Kg p.o., 200 mg/kg): 12%
- Effect on the capillary permeability, .0. m.micron [15]: 13.58 m.micron
- % edema inhibition ([16]; 50 mg/Kg p.o.): 13%
- % edema inhibition ([16]; 100 mg/Kg p.o., 100 mg/kg): 5%
- % edema inhibition ([16]; 200 mg/Kg p.o., 200 mg/kg): 7%
- % inhibition [17]: 11%
- % edema inhibition ([18]; 50 mg/Kg p.o., 50 mg/kg): 0%
- % edema inhibition ([18]; 100 mg/Kg p.o., 100 mg/kg): 13%
- % edema inhibition ([18]; 200 mg/Kg p.o., 200 mg/kg): 0%

Source: patent US4562287A, “2-(4-Biphenylyl)-4-hexenoic acid and derivatives thereof having anti-inflammatory activity” (priority 1983, dated 1985)
